Results on 1 compound are retold here after US11524078B2, “Water-soluble macromolecular derivative of Venetoclax” (Delta-Fly Pharma, Inc., priority 2020, dated 2022).

Data set [1] can be described thus: Solubility in water of compounds. To be noted: (I): 10 mg/mL in physiological saline containing 0.5% CMC, sonication, (II): 10 and 20 mg/mL in physiological saline at 40° C. to 50° C. Format: physicochemical.
The test system of data set [2] is caspase. The experiment in a line: Caspase activity of MV4-11 cells. The data set is classed as cell-based, human. As for the experimental part: According to the above described Pharmaceutical Interview Form, cytochrome C that flowed out from mitochondria into cytoplasm activates caspase, thereby inducing apoptosis. Therefore, human acute myelocytic leukemia cells MV4-11 were plated on a culture medium and cultured overnight. Then, the compound of formula (I) was added at concentrations of 1 pM, 0.01 nM, 0.1 nM, 1 nM, 0.01 μM, 0.1 μM, and 1 μM; and the compound of formula (II) was added at concentrations of 1 pM, 0.01 nM, 0.1 nM, 1 nM, 0.01 μM, and 0.1 μM. After incubation for 24 hours, the culture medium was collected and caspase activity was examined by a conventional known technique.

For data set [3] the following is noted: human protein; cited from earlier work.
Data set [4] relates to human histiocytic lymphoma cell line U937. The experiment in a line: Mouse model of human histiocytic lymphoma (U937), subcutaneous transplant. The data set is classed as in vivo. To be noted: U937 s.c. mice; (II) i.v. weekly x2 at 200 or 300 mg/kg; (I) oral daily two weeks 100 mg/kg. The protocol: The effects of the compounds on suppressing tumor growth were compared in three groups by using mice models which were generated by transplanting a human histiocytic lymphoma cell line U937 subcutaneously into mice. The three groups were the following: a control group; a group whose mice received the compound of formula (II) intravenously at a frequency of once a week for two weeks at a dose of 200 mg/kg or 300 mg/kg; and a group whose mice received the compound of formula (I) orally every day for two weeks at a dose of 100 mg/kg.

The test system of data set [5] is human acute myelocytic leukemia cell line OCI-AML-2. The experiment in a line: Mouse model of human acute myelocytic leukemia (OCI-AML-2), subcutaneous transplant. The data set is classed as in vivo. The conditions noted are these: OCI-AML-2 s.c. mice; (II) i.v. weekly x2 at 100-300 mg/kg; (I) oral daily two weeks 100 mg/kg. The protocol:
The effects of the compounds on suppressing tumor growth were compared in mice groups by using mice models which were generated by transplanting a human acute myelocytic leukemia cell line OCI-AML-2 subcutaneously into mice. The mice groups were the following: a control group; groups whose mice received the compound of formula (II) intravenously once every week for two weeks at a dose of 100 mg/kg, 200 mg/kg, or 300 mg/kg; and a group whose mice received the compound of formula (I) orally every day for two weeks at a dose of 100 mg/kg (see FIG. 5(1)).

The subject of data set [6] is cytochrome C. The data set is described as follows: Cytochrome C release from mitochondria into cytoplasm in MV4-11 cells. The data set is classed as cell-based, human. The conditions noted are these: (I) 0.1 and 1 μM, (II) 0.01, 0.1 and 1 μM, incubation five hours. The protocol:
In the above described Pharmaceutical Interview Form, “cytochrome C” that flowed out from mitochondria into cytoplasm is described as “pro-apoptotic protein.” Therefore, human acute myelocytic leukemia cells MV4-11 were plated on a culture medium and cultured overnight. Then, the compound of formula (I) was added at concentrations of 0.1 μM and 1 μM, and the compound of formula (II) was added at concentrations of 0.01 μM, 0.1 μM, and 1 μM. After incubation for five hours, a cytoplasm fraction and a mitochondrial fraction were extracted and cytochrome C release was examined.

Data set [7] deals with BAX. The data set is described as follows: BAX expression in cytoplasm and mitochondrial fractions of MV4-11 cells. Format: cell-based, human. The conditions noted are these: (I) 0.1 and 1 μM, (II) 0.01, 0.1 and 1 μM, incubation five hours. The protocol: Human acute myelocytic leukemia cells MV4-11 were plated on a culture medium and cultured overnight. Then, the compound of formula (I) was added at concentrations of 0.1 μM and 1 μM, and the compound of formula (II) was added at concentrations of 0.01 μM, 0.1 μM, and 1 μM. After incubation for five hours, a cytoplasm fraction and a mitochondrial fraction were extracted and BAX expression was examined.

Data set [8] has as its system human lung cancer cell line A549. The data set is described as follows: Cytotoxic effect, human lung cancer cell line A549. To be noted: A549, read-out: IC50 (50% inhibition percentage).
Source text: (§1) Concentration dependence of the cytotoxic effect of the compound of formula (I) and the compound of formula (II) was examined as described below.
The test system of data set [9] is human pancreatic cancer cell line PANC-1. The experiment in a line: Cytotoxic effect, human pancreatic cancer cell line PANC-1. To be noted: PANC-1, read-out: IC50 (50% inhibition percentage).
Source text: as §1
For data set [10], the system named is human acute myelocytic leukemia cell line MV4-11. The experiment in a line: Cytotoxic effect, human acute myelocytic leukemia cell line MV4-11. Format: cell-based. To be noted: Opti-MEM reduced-serum medium used for compound of formula (I), read-out: IC50 (50% inhibition percentage).
Source text: as §1

Take `CC1(C)CCC(CN2CCN(c3ccc(C(=O)NS(=O)(=O)c4ccc(NCC5CCOCC5)c([N+](=O)[O-])c4)c(Oc4cnc5[nH]ccc5c4)c3)CC2)=C(c2ccc(Cl)cc2)C1` [compound of formula (I), Venetoclax]: in [1], the “state of preparation in aqueous vehicle” value is reported as “uniform bright yellow opaque suspension”. Further, the “caspase activity, concentration dependence” value in [2] (1 pM to 1 μM (I), 1 pM to 0.1 μM (II), incubation 24 hours) was “increased depending on the concentration”. In data set [2] (concentration in terms of Venetoclax 0.1 μM, 24 hours), the “caspase activity at 0.1 μM, (I) versus (II)” value is recorded as “exactly the same caspase activity”. Also, in data set [3], the “binding percentage to protein” value is given as at least 99.9%. The “effect of suppressing tumor growth” value in data set [4] is “no effect of suppressing growth of U937”. Also, the “effect on suppressing weight change” value in data set [5] is given as “suppressed weight change”. Also, the “amount of cytochrome C released from mitochondria into cytoplasm” value in data set [6] was “increased depending on the concentration”. In addition, the “BAX in the cytoplasm fraction” value in data set [7] is given as “concentration-dependent decrease of BAX in the cytoplasm fraction”. The results for the IC50 in data set [8], in data set [9] and in data set [10] were 990 nM, 990 nM and 160 nM, respectively.

The term IC50 denotes the concentration that gives 50% inhibition.
